We go through one molecule from article PMC5218480 (PLoS ONE, 2017).

Structures are written as SMILES.

This assay has as its system MV-4-11 cells. In words: Gene expression microarray analysis (Affymetrix PrimeView) and GSEA. Type of assay: cell-based, human. Also noted: RFU PODN (11730768_x_at) / Fold change /veh PODN (11730768_x_at) / RFU LINC00158 (11744669_a_at) / Fold change /veh LINC00158 (11744669_a_at) / RFU DUSP10 (11751237_a_at) / Fold change /veh DUSP10 (11751237_a_at) / RFU ID3 (11757404_x_at) / Fold change /veh ID3 (11757404_x_at) / RFU PLEKHG5 (11737974_s_at) / Fold change /veh PLEKHG5 (11737974_s_at) / RFU LRRC4B (11730491_at) / Fold change /veh LRRC4B (11730491_at) / RFU GIMAP4 (11747438_a_at) / Fold change /veh GIMAP4 (11747438_a_at) / RFU KRT8 (11758183_x_at) / Fold change /veh KRT8 (11758183_x_at) / RFU CNN1 (11734310_a_at) / Fold change /veh CNN1 (11734310_a_at) / RFU VPS37D (11726825_at) / Fold change /veh VPS37D (11726825_at) / RFU C10orf10 (11716522_x_at) / Fold change /veh C10orf10 (11716522_x_at) / RFU KIR2DL2 /// KIR2DL4 /// KIR2DL5A /// KIR2DL5B /// KIR2DS1 /// KIR2DS2 /// KIR2DS3 /// KIR2DS4 /// KIR3DL3 /// KIR3DL3 /// KIR3DS1 (11738374_at) / Fold change /veh KIR2DL2 /// KIR2DL4 /// KIR2DL5A /// KIR2DL5B /// KIR2DS1 /// KIR2DS2 /// KIR2DS3 /// KIR2DS4 /// KIR3DL3 /// KIR3DL3 /// KIR3DS1 (11738374_at) / RFU C1QL1 (11718748_at) / Fold change /veh C1QL1 (11718748_at) / RFU TMPRSS4 (11747572_a_at) / Fold change /veh TMPRSS4 (11747572_a_at) / RFU HAMP (11756126_x_at) / Fold change /veh HAMP (11756126_x_at) / RFU RNFT2 (11725882_a_at) / Fold change /veh RNFT2 (11725882_a_at) / RFU NR4A2 (11747474_a_at) / Fold change /veh NR4A2 (11747474_a_at) / RFU ABCC12 (11746883_a_at) / Fold change /veh ABCC12 (11746883_a_at) / RFU TMEM136 (11760407_x_at) / Fold change /veh TMEM136 (11760407_x_at) / RFU CLDN22 /// WWC2 (11732394_at) / Fold change /veh CLDN22 /// WWC2 (11732394_at) / RFU HLA-DPB1 (11760878_x_at) / Fold change /veh HLA-DPB1 (11760878_x_at) / RFU SPINT1 (11716480_a_at) / Fold change /veh SPINT1 (11716480_a_at) / RFU GAP43 (11754022_s_at) / Fold change /veh GAP43 (11754022_s_at) / RFU A4GNT (11735810_at) / Fold change /veh A4GNT (11735810_at) / RFU PRB3 (11715151_x_at) / Fold change /veh PRB3 (11715151_x_at) / RFU TUBB4B (11761932_at) / Fold change /veh TUBB4B (11761932_at) / RFU CAPN14 (11732068_a_at) / Fold change /veh CAPN14 (11732068_a_at) / RFU TMCC2 (11721928_a_at) / Fold change /veh TMCC2 (11721928_a_at) / RFU IRGQ (11745062_a_at) / Fold change /veh IRGQ (11745062_a_at) / RFU FAM174B (11720279_a_at) / Fold change /veh FAM174B (11720279_a_at) / RFU TMPRSS4 (11748680_a_at) / Fold change /veh TMPRSS4 (11748680_a_at) / RFU FAM212B (11763350_a_at) / Fold change /veh FAM212B (11763350_a_at) / RFU PLEKHG5 (11743358_a_at) / Fold change /veh PLEKHG5 (11743358_a_at) / RFU ZSCAN30 (11745921_a_at) / Fold change /veh ZSCAN30 (11745921_a_at) / RFU CMKLR1 (11741424_a_at) / Fold change /veh CMKLR1 (11741424_a_at) / RFU LOC101060620 /// MAPK8IP1 (11723275_at) / Fold change /veh LOC101060620 /// MAPK8IP1 (11723275_at) / RFU SPTSSB (11747773_x_at) / Fold change /veh SPTSSB (11747773_x_at) / RFU PRSS12 (11739890_at) / Fold change /veh PRSS12 (11739890_at) / RFU BIN1 (11741810_x_at) / Fold change /veh BIN1 (11741810_x_at) / RFU WNT11 (11732464_a_at) / Fold change /veh WNT11 (11732464_a_at) / RFU C10orf10 (11716521_a_at) / Fold change /veh C10orf10 (11716521_a_at) / RFU C5orf56 (11738089_at) / Fold change /veh C5orf56 (11738089_at) / RFU CYB561 (11721691_x_at) / Fold change /veh CYB561 (11721691_x_at) / RFU ANKRD19P (11752326_a_at) / Fold change /veh ANKRD19P (11752326_a_at) / RFU OR2T12 /// OR2T33 /// OR2T8 (11738714_s_at) / Fold change /veh OR2T12 /// OR2T33 /// OR2T8 (11738714_s_at) / RFU VCAN (11748164_a_at) / Fold change /veh VCAN (11748164_a_at) / RFU JSRP1 (11732532_at) / Fold change /veh JSRP1 (11732532_at) / RFU KRTAP10-11 (11738290_x_at) / Fold change /veh KRTAP10-11 (11738290_x_at) / RFU MYO3A (11730013_a_at) / Fold change /veh MYO3A (11730013_a_at) / RFU EBF3 (11725865_a_at) / Fold change /veh EBF3 (11725865_a_at) / RFU CAMK2N1 (11719241_x_at) / Fold change /veh CAMK2N1 (11719241_x_at) / RFU C5orf56 (11738088_a_at) / Fold change /veh C5orf56 (11738088_a_at) / RFU OLFML3 (11715873_a_at) / Fold change /veh OLFML3 (11715873_a_at) / RFU LOC100653217 /// NTM (11731650_a_at) / Fold change /veh LOC100653217 /// NTM (11731650_a_at) / RFU MAPK11 (11762145_a_at) / Fold change /veh MAPK11 (11762145_a_at) / RFU FIZ1 (11724087_x_at) / Fold change /veh FIZ1 (11724087_x_at) / RFU OASL (11726364_x_at) / Fold change /veh OASL (11726364_x_at) / RFU SOX15 (11748057_x_at) / Fold change /veh SOX15 (11748057_x_at) / RFU CD79A (11719716_a_at) / Fold change /veh CD79A (11719716_a_at) / RFU HIST1H1D (11736915_at) / Fold change /veh HIST1H1D (11736915_at) / RFU CASKIN2 (11723855_a_at) / Fold change /veh CASKIN2 (11723855_a_at) / RFU LOC730098 (11760151_x_at) / Fold change /veh LOC730098 (11760151_x_at) / RFU OR4N2 (11742367_at) / Fold change /veh OR4N2 (11742367_at) / RFU PRRT2 (11749266_a_at) / Fold change /veh PRRT2 (11749266_a_at) / RFU SNX32 (11753110_a_at) / Fold change /veh SNX32 (11753110_a_at) / RFU CDHR5 (11726645_a_at) / Fold change /veh CDHR5 (11726645_a_at) / RFU RCAN1 (11760418_a_at) / Fold change /veh RCAN1 (11760418_a_at) / RFU FAM167A (11723789_a_at) / Fold change /veh FAM167A (11723789_a_at) / RFU FAM26E (11764081_at) / Fold change /veh FAM26E (11764081_at) / RFU ISYNA1 (11749810_s_at) / Fold change /veh ISYNA1 (11749810_s_at) / RFU ACY1 (11761880_at) / Fold change /veh ACY1 (11761880_at) / RFU 11764098_at / Fold change /veh 11764098_at / RFU SAMD14 (11745864_x_at) / Fold change /veh SAMD14 (11745864_x_at) / RFU NPB (11741838_a_at) / Fold change /veh NPB (11741838_a_at) / RFU TMPRSS6 (11731388_a_at) / Fold change /veh TMPRSS6 (11731388_a_at) / RFU KRTAP10-2 (11738614_at) / Fold change /veh KRTAP10-2 (11738614_at) / RFU ARHGAP8 /// PRR5-ARHGAP8 (11727945_x_at) / Fold change /veh ARHGAP8 /// PRR5-ARHGAP8 (11727945_x_at) / RFU KRTAP5-7 /// NADSYN1 (11734609_at) / Fold change /veh KRTAP5-7 /// NADSYN1 (11734609_at) / RFU RASL12 (11751679_a_at) / Fold change /veh RASL12 (11751679_a_at) / RFU CDKN2B (11736163_a_at) / Fold change /veh CDKN2B (11736163_a_at) / RFU PRF1 (11729649_at) / Fold change /veh PRF1 (11729649_at) / RFU, ZNF638 /// ZNF638-IT1 / Fold change vs veh, ZNF638 /// ZNF638-IT1 / RFU, PANK3 / Fold change vs veh, PANK3 / RFU, SH3YL1 / Fold change vs veh, SH3YL1 / RFU, ZEB2 / Fold change vs veh, ZEB2 / RFU, NRIP1 / Fold change vs veh, NRIP1 / RFU, PTTG1IP / Fold change vs veh, PTTG1IP / RFU, CAPN2 / Fold change vs veh, CAPN2 / RFU, MED14 / Fold change vs veh, MED14 / RFU, SNORA58 / Fold change vs veh, SNORA58 / RFU, C1orf63 / Fold change vs veh, C1orf63 / RFU, LRRFIP1 / Fold change vs veh, LRRFIP1 / RFU, NDUFAF7 / Fold change vs veh, NDUFAF7 / RFU, SLC12A2 / Fold change vs veh, SLC12A2 / RFU, IBTK / Fold change vs veh, IBTK / RFU, ESF1 / Fold change vs veh, ESF1 / Fold change vs veh, TMEM50B / RFU, TAOK1 / Fold change vs veh, TAOK1 / RFU, ACBD3 / Fold change vs veh, ACBD3 / RFU, TMA16 / Fold change vs veh, TMA16 / RFU, RWDD3 / Fold change vs veh, RWDD3 / RFU, BCAT1 / Fold change vs veh, BCAT1 / RFU, EDEM3 / Fold change vs veh, EDEM3 / RFU, TMEM33 / Fold change vs veh, TMEM33 / RFU, WDR75 / Fold change vs veh, WDR75 / RFU, AHCTF1 / Fold change vs veh, AHCTF1 / RFU, TFRC / Fold change vs veh, TFRC / RFU, ZDHHC17 / Fold change vs veh, ZDHHC17 / RFU, NOM1 / Fold change vs veh, NOM1 / RFU, ARL8B / Fold change vs veh, ARL8B / RFU, ZBTB11 / Fold change vs veh, ZBTB11 / RFU, TAMM41 / Fold change vs veh, TAMM41 / RFU, KIAA1704 /// LOC100996395 / Fold change vs veh, KIAA1704 /// LOC100996395 / RFU, ING1 / Fold change vs veh, ING1 / RFU, TRMT61B / Fold change vs veh, TRMT61B / RFU, FUBP3 / Fold change vs veh, FUBP3 / RFU, TP53 / Fold change vs veh, TP53 / RFU, TNKS2 / Fold change vs veh, TNKS2 / RFU, ZFP14 / Fold change vs veh, ZFP14 / RFU, ACTR2 / Fold change vs veh, ACTR2 / RFU, PPP3R1 / Fold change vs veh, PPP3R1 / RFU, PIK3R1 / Fold change vs veh, PIK3R1 / RFU, HNRNPA1 / Fold change vs veh, HNRNPA1 / RFU, RNF170 / Fold change vs veh, RNF170 / RFU, ZNF28 / Fold change vs veh, ZNF28 / RFU, RNGTT / Fold change vs veh, RNGTT / RFU, OGT / Fold change vs veh, OGT / RFU, BRD1 / Fold change vs veh, BRD1 / RFU, MARS / Fold change vs veh, MARS / RFU, ZNF655 / Fold change vs veh, ZNF655 / RFU, FAHD1 / Fold change vs veh, FAHD1 / RFU, BDP1 / Fold change vs veh, BDP1 / RFU, LRRCC1 / Fold change vs veh, LRRCC1 / RFU, ARID1A / Fold change vs veh, ARID1A / RFU, ZNF146 / Fold change vs veh, ZNF146 / RFU, ZNF330 / Fold change vs veh, ZNF330 / RFU, GPN3 / Fold change vs veh, GPN3 / RFU, C9orf123 / Fold change vs veh, C9orf123 / RFU, N4BP2L2 / Fold change vs veh, N4BP2L2 / RFU, ARFIP1 / Fold change vs veh, ARFIP1 / RFU, FAM179B / Fold change vs veh, FAM179B / RFU, BCL10 / Fold change vs veh, BCL10 / RFU, UHRF1BP1L / Fold change vs veh, UHRF1BP1L / RFU, BET1 / Fold change vs veh, BET1 / RFU, CNOT2 / Fold change vs veh, CNOT2 / RFU, ZNF268 / Fold change vs veh, ZNF268 / Fold change vs veh, ZNF507 / RFU, DGCR2 / Fold change vs veh, DGCR2 / RFU, WDSUB1 / Fold change vs veh, WDSUB1 / Fold change vs veh, HSP90B1 /// MIR3652 / RFU, ADSS / Fold change vs veh, ADSS / RFU, GK / Fold change vs veh, GK / RFU, ZNF148 / Fold change vs veh, ZNF148 / RFU, TAF9 / Fold change vs veh, TAF9 / RFU, SLC1A5 / Fold change vs veh, SLC1A5 / RFU, SLMO2 / Fold change vs veh, SLMO2 / RFU, ABCC4 / Fold change vs veh, ABCC4 / RFU, LOC101060439 /// RAP1B / Fold change vs veh, LOC101060439 /// RAP1B / RFU, RFX7 / Fold change vs veh, RFX7 / RFU, GTPBP10 / Fold change vs veh, GTPBP10 / RFU, CNEP1R1 / Fold change vs veh, CNEP1R1 / RFU, BIVM-ERCC5 /// ERCC5 / Fold change vs veh, BIVM-ERCC5 /// ERCC5 / RFU, ILF3 / Fold change vs veh, ILF3 / RFU 11762660_at / Fold change /veh 11762660_at / RFU VCAN (11757783_s_at) / Fold change /veh VCAN (11757783_s_at) / RFU DDX43 (11728927_at) / Fold change /veh DDX43 (11728927_at) / RFU KRT8 (11758188_x_at) / Fold change /veh KRT8 (11758188_x_at) / RFU NKD1 (11759106_at) / Fold change /veh NKD1 (11759106_at) / RFU SRD5A1 (11742802_a_at) / Fold change /veh SRD5A1 (11742802_a_at) / RFU TPSAB1 /// TPSB2 (11721975_s_at) / Fold change /veh TPSAB1 /// TPSB2 (11721975_s_at) / RFU GSTM3 (11746129_a_at) / Fold change /veh GSTM3 (11746129_a_at) / RFU IL23R (11737362_x_at) / Fold change /veh IL23R (11737362_x_at) / RFU TMEM51 (11727254_a_at) / Fold change /veh TMEM51 (11727254_a_at) / RFU PIWIL2 (11732686_x_at) / Fold change /veh PIWIL2 (11732686_x_at) / RFU ORM1 (11744905_x_at) / Fold change /veh ORM1 (11744905_x_at) / RFU CCDC152 (11743942_at) / Fold change /veh CCDC152 (11743942_at) / RFU ECM1 (11717891_a_at) / Fold change /veh ECM1 (11717891_a_at) / RFU IL23R (11748794_a_at) / Fold change /veh IL23R (11748794_a_at) / RFU TNFAIP8L3 (11732012_x_at) / Fold change /veh TNFAIP8L3 (11732012_x_at) / RFU MBOAT4 (11741988_at) / Fold change /veh MBOAT4 (11741988_at) / RFU 11764193_at / Fold change /veh 11764193_at / RFU TMEM53 (11763286_at) / Fold change /veh TMEM53 (11763286_at) / RFU MAGEB2 (11727129_at) / Fold change /veh MAGEB2 (11727129_at) / RFU TMEM200A (11744735_a_at) / Fold change /veh TMEM200A (11744735_a_at) / RFU CCDC152 (11751479_a_at) / Fold change /veh CCDC152 (11751479_a_at) / RFU FAM211A (11726209_a_at) / Fold change /veh FAM211A (11726209_a_at) / RFU RGS16 (11746705_a_at) / Fold change /veh RGS16 (11746705_a_at) / RFU VCAN (11755009_s_at) / Fold change /veh VCAN (11755009_s_at) / RFU RHOB (11743442_s_at) / Fold change /veh RHOB (11743442_s_at) / RFU RGS16 (11720943_a_at) / Fold change /veh RGS16 (11720943_a_at) / RFU RGS16 (11720944_at) / Fold change /veh RGS16 (11720944_at) / RFU, VPS4B / Fold change vs veh, VPS4B / RFU, CREB1 / Fold change vs veh, CREB1 / RFU, DNAJC13 / Fold change vs veh, DNAJC13 / RFU, GNAQ / Fold change vs veh, GNAQ / RFU, CDK5R1 / Fold change vs veh, CDK5R1 / RFU, ZRANB3 / Fold change vs veh, ZRANB3 / RFU, CUL4A / Fold change vs veh, CUL4A / RFU, CCNY / Fold change vs veh, CCNY / RFU, UFL1 / Fold change vs veh, UFL1 / RFU, COG3 / Fold change vs veh, COG3 / RFU, DIAPH2 / Fold change vs veh, DIAPH2 / RFU, SKA2 / Fold change vs veh, SKA2 / RFU, AFF3 / Fold change vs veh, AFF3 / RFU, LMF1 / Fold change vs veh, LMF1 / RFU, IPO11 / Fold change vs veh, IPO11 / RFU, DFFB / Fold change vs veh, DFFB / RFU, FOXP1 / Fold change vs veh, FOXP1 / RFU, CARD8 / Fold change vs veh, CARD8 / RFU, STRN3 / Fold change vs veh, STRN3 / RFU, ADK / Fold change vs veh, ADK / RFU, RASSF2 / Fold change vs veh, RASSF2 / RFU, WIPF1 / Fold change vs veh, WIPF1 / RFU, LARP1B / Fold change vs veh, LARP1B / RFU, RASA1 / Fold change vs veh, RASA1 / RFU, RB1 / Fold change vs veh, RB1 / RFU, PPFIA1 / Fold change vs veh, PPFIA1 / RFU, MAT2A / Fold change vs veh, MAT2A / RFU, CCT5 / Fold change vs veh, CCT5 / RFU, WDR92 / Fold change vs veh, WDR92 / RFU, CUX1 / Fold change vs veh, CUX1 / RFU, TTC7A / Fold change vs veh, TTC7A / RFU, TMEM135 / Fold change vs veh, TMEM135 / RFU, DEPTOR / Fold change vs veh, DEPTOR / RFU, CPM / Fold change vs veh, CPM / RFU, DNAJB6 / Fold change vs veh, DNAJB6 / RFU, CACNA2D3 / Fold change vs veh, CACNA2D3 / RFU, DTX4 / Fold change vs veh, DTX4 / RFU, TFCP2 / Fold change vs veh, TFCP2 / RFU, GMCL1 /// GMCL1P1 / Fold change vs veh, GMCL1 /// GMCL1P1 / RFU, AEBP2 / Fold change vs veh, AEBP2 / RFU, SNHG1 /// SNORD22 /// SNORD25 /// SNORD26 /// SNORD27 /// SNORD28 /// SNORD29 /// SNORD31 / Fold change vs veh, SNHG1 /// SNORD22 /// SNORD25 /// SNORD26 /// SNORD27 /// SNORD28 /// SNORD29 /// SNORD31 / Fold change (Aza/veh), C12orf56 (ProbeSet 11735607_a_at) / Fold change (ACY-1035/veh), C12orf56 (ProbeSet 11735607_a_at) / Fold change (Aza/veh), FGFR1OP (ProbeSet 11751329_s_at) / Fold change (ACY-1035/veh), FGFR1OP (ProbeSet 11751329_s_at) / Fold change (Aza/veh), VPS36 (ProbeSet 11739960_a_at) / Fold change (ACY-1035/veh), VPS36 (ProbeSet 11739960_a_at) / RFU SYPL1 (11715823_x_at) / Fold change /veh SYPL1 (11715823_x_at) / RFU IGFBP7 (11715501_s_at) / Fold change /veh IGFBP7 (11715501_s_at) / RFU REEP3 (11722064_at) / Fold change /veh REEP3 (11722064_at) / RFU IGLL1 (11728026_x_at) / Fold change /veh IGLL1 (11728026_x_at): dose or concentration left out as unconfirmed. Conditions: MV-4-11 cells, 48 hours.

For the molecule `Nc1ncn([C@@H]2O[C@H](CO)[C@@H](O)[C@H]2O)c(=O)n1` [azacitidine], the “Fold change /veh OR4N2 (11742367_at)” value was found to be 1.01.
